Data reported in US20220265759A1, “COMPOSITION AND METHOD FOR PROMOTING WOUND HEALING” (THE BOARD OF TRUSTEES OF THE UNIVERSITY OF ILLIOIS, priority 2019, published 2022).
“Also recorded” adds a separate entry of the source. Peptide text beside a SMILES is read from it. * marks the point of attachment. Myristoyl = CCCCCCCCCCCCCC(=O)*

How the values were obtained:
[1] = test system: cell viability; assay: Cell viability; assay type: cell-based
[2] = molecular target: T1, CCR10-eNOS interaction (Mus musculus, UniProt Q9JL21); assay: Co-IP of CCR10-eNOS interaction in WT mouse wounds; assay type: in vivo, WT C57BL/6 mice; settings: day 7, 50 μM
T1 construct: cells or mouse wounds were collected after treatment, and lysed in 2% ODG in Tris buffer; tissue Jackson Laboratory; host or cells: dorsal skin wounds of WT C57BL/6 or db/db mice
T1 sequence (Q9JL21 1-362): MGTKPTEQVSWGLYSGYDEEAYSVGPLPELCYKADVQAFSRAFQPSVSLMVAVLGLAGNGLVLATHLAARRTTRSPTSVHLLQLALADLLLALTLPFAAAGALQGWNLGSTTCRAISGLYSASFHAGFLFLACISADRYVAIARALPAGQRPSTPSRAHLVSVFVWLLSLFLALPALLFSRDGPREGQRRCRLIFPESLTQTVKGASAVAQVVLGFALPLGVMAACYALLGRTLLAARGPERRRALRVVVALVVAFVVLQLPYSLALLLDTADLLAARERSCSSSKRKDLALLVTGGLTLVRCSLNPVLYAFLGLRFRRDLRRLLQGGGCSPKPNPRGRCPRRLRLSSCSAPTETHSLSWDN
Text: (§1) Co-IP Experiments, cells or mouse wounds were collected after treatment, and lysed in 2% ODG in Tris buffer. The homogenates were further prepared for Co-IP experiments as described in the art (Chen, et al. (2018) Mol. Biol. Cell 29(10):1190-1202; Chen, et al. (2020) FASEB J. 34(4):5838-5850; Chen, et al. (2015) Ann. Rheum. Dis. 74:1898-1906).

[3] = test system: eNOS; assay: eNOS protein level in WT mouse wounds; assay type: in vivo, WT C57BL/6 mice; settings: day 7, compared to control peptide
[4] = test system: eNOS and CCR10 interaction with LAMP1; assay: eNOS internalization and degradation in HDMVECs stimulated with CCL28 (Co-IP with LAMP1, confocal microscopy); assay type: cell-based, human
Experimental: as §1
Confocal Microscopy. For cellular immunostaining, confluent monolayers of cells grown on coverslips were prepared as described previously (Chen, et al. (2012) Mel. Biol. Cell 23(7):1388-1398). Fluorescent images were obtained using a Zeiss LSM 880 confocal microscope. The co-localization coefficient in specified regions of interest (ROI) were determined using Zeiss Zen software. Briefly, using the Overlay tool, the desired ROI was drawn along the cell edge and the values for the ROIs tabulated. The scatterplot and table were automatically adjusted to the pixel distribution for the selected ROI. The data from different treatment groups were collected and analyzed for statistical significance as described previously (Chen, et al. (2020) FASEB J. 34(4):5838-5850). […]
Since myristoylated 7 amino acid CCR10-binding domain (Myr-CBD7) peptide can block eNOS interaction with CCR10 and increase eNOS activity in HUVECs, it was assessed whether Myr-CBD7 can prevent eNOS internalization and degradation in HDMVECs following CCL28 stimulation. […]

[5] = molecular target: T1, CCR10-eNOS interaction; assay: Co-IP of CCR10-eNOS interaction in db/db mouse wounds; assay type: in vivo, db/db mice; settings: day 12, vs Ctl-P
Experimental: as §1
Two 8 mm full thickness excisional wounds were made on the dorsal skin of diabetic db/db mice and then 50 μl of 50 μM Myr-CBD7 peptide was topically applied. […] Reduced CCR10-eNOS interaction was also observed in the mouse wounds following treatment with Myr-CBD7 peptide as determined by Co-IP (FIG. 6).

[6] = test system: wound blood perfusion; assay: Blood perfusion by laser speckle contrast analysis (LASCA) in db/db mouse wounds; assay type: in vivo, db/db mice; settings: day 7, 50 μM, vs control peptide
Experimental: Blood Perfusion Measurement. Immediately after creation of dorsal skin wounds on db/db mice using an 8 mm punch, 50 μl of 50 μM Myr-scrambled control or Myr-CBD7 peptide in F-127 gel sold under the tradename PLURONIC® was applied topically to the wounds on db/db mice. Blood perfusion was analyzed based on motion detected below the surface of the wound using a near infrared laser based PeriCam PSI laser speckle contrast analysis system (LASCA) as described previously (Elgharably, et al. (2013) Wound Repair Regen. 21(3):473-481; Das, et al. (2016) J. Immunol. 196(12):5089-5100).
To further investigate if Myr-CBD7 promotes healing of dorsal skin wounds on db/db mice by stimulating angiogenesis, blood perfusion as detected by laser speckle contrast analysis (LASCA), was monitored.

[7] = test system: CD31, CCR10, CCL28, IL-6, IL-4, HGF mRNA; assay: Real-time RT-PCR of mRNA levels in WT mouse dermal wounds; assay type: in vivo, WT C57BL/6 mice
Experimental: Real-Time RT-PCR. Total cellular RNA from mouse skin wounds was extracted using nucleic acid extraction reagent sold under the tradename TRIZOL®. mRNA expression of different genes was examined by real-time RT-PCR that employed a SYBR Green PCR mix. Relative gene expression was determined by the ΔΔCt method based on GAPDH levels as described previously (Chen, et al. (2013) J. Immunol. 190:5256-5266).

CCR10-eNOS interaction in wounds (Co-IP) [2]: reduced
CCR10-eNOS interaction in wounds (Co-IP) [5]: Reduced; also recorded: disrupted
increase of hepatocyte growth factor (HGF) mRNA level ([7]; wounds day 7, non-significant): 35%
SMILES: CCCCCCCCCCCCCC(=O)N[C@@H](CCCCN)C(=O)N[C@H](C(=O)N[C@@H](CO)C(=O)N[C@@H](C)C(=O)N[C@@H](CO)C(=O)N[C@@H](CC(C)C)C(=O)N[C@@H](CCSC)C(=O)O)[C@@H](C)CC [Myr-CBD7, myr-KISASLM] (Myristoyl-KISASLM-OH)
concentration without adversely affecting cell viability [1]: up to 100 μM
eNOS protein level in wounds [3]: enhanced
eNOS interaction with LAMP1 ([4]; HDMVECs, pretreatment, CCL28 stimulation, compared to scrambled control peptide): prevented
eNOS localization (confocal microscopy) ([4]; pretreatment prior to CCL28 for 3 hours): remained on the plasma membrane
blood perfusion [6]: significantly increased
CCL28 mRNA level ([7]; wounds day 7): reduction
CCR10 mRNA level ([7]; wounds day 7): did not change
CD31 mRNA level ([7]; wounds day 7): elevated
IL-4 mRNA level ([7]; wounds day 7): enhancing
IL-6 mRNA level ([7]; wounds day 7): reduction
